Structures are written as SMILES. Read-outs that look alike come from different tables or passages of the source.

In one series the test system is plasmid DNA. Put plainly: Dissociation of DNA from DNA/liposome complexes by glutathione, agarose gel electrophoresis. In kind it is physicochemical. The following applies: in both reductive and non-reductive environments, 20 hours. The method, then: Dissociation of DNA from DNA/liposome complexes by glutathione: One μg of plasmid DNA was dissolved in 10 (L of phosphate-buffer saline (PBS). Cationic liposomes […] or CHSTAEA/DOPE were added to pDNA solution at the increasing weight ratios of 2/1, respectively. All calculations of the weight of liposomes in this paper were based on the weight of cationic lipids only. After the complexes were incubated for 30 minutes at room temperature, 10 (L of 20 mM of glutathione in PBS (pH=7.3) was added to the mixture to reach a final concentration of glutathione of 10 mM. The mixtures were incubated at 37° C. for 20 hours. Released DNA was visualized by 1% agarose gel electrophoresis.
DNA was complexed with a disulfide cationic liposome CHDTAEA/DOPE or its non-disulfide cationic liposome analog CHSTAEA/DOPE at the cationic lipid to DNA ratio of 2/1. […] In the presence of 10 mM of glutathione, >50% of DNA was released from complexes after the incubation. […] The complexes with the ratios of cationic liposome/DNA from 3/1 to 5/1 were also tested in the release assay with similar same results.

For another series, the system named is CHO and SKnSH cells. Put plainly: Cytotoxicity of liposome/DNA complexes, both cell lines (FIG. 6). In kind it is cell-based. As for the experimental part:
FIGS. 6A and 6B show the toxicity assays of cytotoxicity of the liposome/DNA complexes was studied in CHO and SKnSH cells. A fixed dose of 1 μg/well of pDNA was mixed with increasing amount of cationic liposomes and used in the toxicity assay. Cell viability was calculated as percentage of survival cells as stated in the Methods section. FIG. 6A: Toxicity in CHO cells. FIG. 6B: Toxicity in SKnSH cells. .diamond-solid.CHDTAEA/DOPE, .box-solid.CHSTAEA/DOPE; .tangle-solidup.DC-Chol/DOPE. Data is shown as mean (S. D. (n=3).
Toxicity Assay of CHDTAEA, CHSTAEA and DC-Chol: The toxicity of CHDTAEA/DOPE, CHSTAEA/DOPE and DC-Chol/DOPE in the CHO and SKnSH cell line was determined using a CARE-LASS (a calcein release assay). Before the assay, cells were plated in a 96 well plate (1(10^5 cells/well) and grown to 60-80% confluence overnight. To test the toxicity of the DNA/liposome complexes, a fixed amount of DNA (1 μg/well) was used to complex with increasing amount of liposomes. The ratios of DNA to liposome of different treatments were the same as the ratios used in transfection studies. The cytotoxicity of three liposomes were measured and expressed according to our previous procedure (Tang, F., J. A. Hughes (1998) Biochem Biophys Res Commun 242:141-145). Each experiment was performed in triplicate and repeated at least twice.

A further series relates to SKnSH cells. In words: Luciferase gene transfection. In kind it is cell-based.
For series [1], the system named is CHO cells. Put plainly: Transfection efficiency assay (green fluorescence protein, pUF2 DNA). The note with it: optimal transfection ratio. The class given is cell-based, Chinese hamster. As for the experimental part: Transfection efficiency assay: The optimal weight ratio for transfection of each liposome was used. […] Complexes were incubated with CHO cells in serum free media for 4.5 hour then the media was changed to growth media and further incubated for 20 hours. Transfection efficiency was determined by counting the number of green fluorescence cells compared with all cells in the field of vision under (20 magnification using a Nikon Diaphot inverted microscope). Each transfection was done in triplicate and three separate counts were made for each well.

Series [2] can be described thus: Aggregation of transfection complexes during transfection. The class given is physicochemical. The method, then:
The lack of physical stability of liposome/DNA complexes affects the gene transfection activity (Caplen, N. J., E. Kinrade, F. Sorgi, X Gao, D. Gruenert, C. Couttelle, L. Huang, E. W . F. W. Alton, R. Williamson (1995) Gene Ther. 2:603). […] The interaction force between primary amino groups and DNA is not as strong as the interaction force of a quaternary amino group with DNA and is dependent on the local environment.
(§1) When DNA transfection was carried out in serum free media, the DNA/liposome complexes usually incubated with cells for about 4-5 hours. […] Biophys. Acta 1111, 239-246). For gene transfection in growth media containing 10% FBS, the toxicity of complexes may be alleviated, and also the transfection may be inhibited by enzymes or slowed down by negatively charged macromolecules.

In series [3] the test system is CHO cells. Put plainly: Luciferase gene transfection (second set of experiments). The class given is cell-based, Chinese hamster. The method, then: as §1
Biophys. Acta 1111, 239-246).

A further series deals with COS 1 cells. Described as above.
A further series has as its system COS-1 cells. In words: Luciferase gene transfection. The class given is cell-based.
The next series relates to 293 cells. Put plainly: Luciferase gene transfection. The class given is cell-based.
Series [4] deals with COS 1 cells and CHO cells. Put plainly: Luciferase gene transfection (second set of experiments), COS 1 and CHO. The class given is cell-based. The following applies: serum free media.
Description: In another set of experiments COS 1 and Chinese hamster ovary (CHO) cells were maintained in DMEM (high glucose) and (-MEM) respectively, and supplemented with 10% fetal bovine serum (FBS) and antibiotics (penicillin 100 g/ml and streptomycin 100 μg/ml). All cells were kept in 5% CO2 and at 37° C. in humidified air. Cell lines were cultured and seeded in 24 well plates (2×10^5), and grown to 60-80% confluence in 1 ml of media with serum. DNA/lipid complexes were made and incubated at room temperature in serum free media for 5-10 minutes and used for transfection. Before transfection, growth media containing serum was changed to serum free media and for the experiment to test serum sensitivity, growth media were changed to fresh growth media and the transfection mixtures were added to the cells. After a certain period of time for the specific experiments, the media was changed to growth media containing serum, and the cells were grown for another 48 hours. Following transfection and incubation, cells were rinsed twice with phosphate buffer saline. 100 μL of luciferase lysis buffer (0.1 M potassium phosphate buffer pH 7.8, 2 mM EDTA, 1% Triton X-100, 1 mM DTT) was added to the cells. The cells were lysed with shaking at room temperature for 15 minutes. Luciferase activity was quantified by using a Monolight 2010 Luminometer. 100 µl of luciferase assay buffer (30 mM tricine, 3 mM ATP, 15 mM MgSO4, 10 mM DDT, pH=7.8) and 2 μL of cell lysate were added to a 100 l injection of 1 mM D-luciferin, pH=6.3 (Molecular Probes). The light emission over a 10 second reaction period was integrated. […] 2 l of cells lysate was used for luciferase assay. The total protein concentration in the supernatant was measured by the BCA protein assay reagent (Pierce, Rockford, Ill.). Luciferase activity in cultured cells was expressed as RLU per mg of protein. Each experiment was repeated at least twice, and within in a series, experiments were done in triplicate.
Comparison experiments were done by using a fixed amount of DNA (3 g/well). Transfection activity of six ratios of cationic lipid to DNA: 1/1, 2/1, 3/1, 4/1, 8/1, and 10/1 (w/w) were tested in COS 1 cells and CHO cells. […] Since serum was reported to decrease the transfection activity of some cationic liposomes, transfection was studied both in serum free media and growth media containing 10% of FBS.
The mark [5] stands for this setting: weight ratio 10/1 (charge ratio 6/1(+/-)).
The mark [6] stands for this setting: CHO cells, growth media containing 10% FBS.
The mark [7] stands for this setting: CHO, serum free, optimal ratio of each liposome.

On to `CC(C)CCC[C@@H](C)[C@H]1CC[C@H]2[C@@H]3CC=C4C[C@@H](OC(=O)CCC(=O)NCCN(CCN)CCN)CC[C@]4(C)[C@H]3CC[C@]12C` [CHSTAEA, Cholesteryl hemisuccinyl tris(aminoethyl)amine], for which the “release of DNA from complexes” value in the series on plasmid DNA is listed as “did not release DNA at any conditions after incubation for 20 hours”. In addition, in the series with CHO and SKnSH cells, the “cytotoxicity vs CHDTAEA” value is recorded as “much greater cytotoxicity”.
Regarding `CC(C)CCC[C@@H](C)[C@H]1CC[C@H]2[C@@H]3CC=C4C[C@@H](OC(=O)NCCN(C)C)CC[C@]4(C)[C@H]3CC[C@]12C` [DC-Chol, Cholesteryl N-(dimethylaminoethyl)carbamate, reference compound], in the series on CHO and SKnSH cells (FIG. 6), the “cytotoxicity vs CHDTAEA” value is listed as “much greater cytotoxicity”.
With `CCCCCCCC/C=C\CCCCCCCC(=O)OC[C@H](COC(=O)CCC(=O)OCCSSCCOC(=O)C(N)CCCN)OC(=O)CCCCCCC/C=C\CCCCCCCC` (some centres unmarked) [DOGSDSO, 1',2'-dioleoyl-sn-glycero-3'-succinyl-2-hydroxyethyl disulfide ornithine conjugate], in the series on SKnSH cells, the “increase in transfection activity compared to DOGSHDO” value is listed as 4 fold. Also, the “transgene expression efficiency (green fluorescence protein)” value (“transgene expression efficiency” below) in the series on CHO cells [1] is given as 20-25%. For the same compound, the “aggregation of transfection complexes” value in series [2] (setting [5]) is on record as “did not aggregate during transfection”. For the same compound, in the series with CHO cells [3] (CHO), the “gene expression on further increase of DNA to 7 μg” value was “decrease of gene expression (p<0.0232)”; the “gene expression, 5 μg vs 6 μg of DNA” value is “no significant difference of gene expression between the treatments of 5 μg of DNA and 6 μg of DNA (p>0.6528)”; the “luciferase gene expression, 5 μg of DNA, vs 7 μg of DNA by DOGSHDO” value turned out to be 14 times higher. Further, in the series on CHO cells [3] (setting [6]), the “transfection time of highest transfection activity” value amounted to 12 h. The luciferase gene expression in the series on CHO cells [3] (CHO, 5 μg of DNA) was 9.03E+08. For the same compound, the “optimal transfection activity, times higher than DOTAP or DOGSHDO” value with CHO cells [3] (CHO, growth media with serum) amounted to 3 times. For the same compound, the “transfection efficiency vs DOGSHDO” value in the series on CHO cells [3] (CHO, lipid/DNA 10/1) is reported as “higher transfection efficiency”. Besides, in the series on CHO cells [3] (setting [7]), the “transfection activity, times higher than DOGSHDO” value was found to be 3 times and the “transfection activity, times higher than DOTAP” value turned out to be 2 times. The “amount of DNA at saturation of system” value in the series with CHO cells [3] (CHO, transferred by 50 μg of DOGSDSO) was 5 µg. Further, the “transfection activity in the presence of serum” value in the series on COS 1 cells (10% FBS, COS-1 cells) is “equally active in the presence of 10% FBS”. The “luciferase gene expression, 2 g of pDNA, vs 7 g of pDNA with DOGSHDO” value in the series on COS 1 cells (COS 1) stood at 3 time higher. The same compound gave a luciferase gene expression in the series with COS 1 cells (COS 1, 2 g of pDNA) of 1.18E+09. In addition, the “transfection activity in growth media vs serum free media” value in the series on COS 1 cells (COS 1, 12 hours) was “comparable to transfection activity in serum free media”. For the same compound, the “transfection activity (luciferase)” value in the series with COS 1 cells (COS 1, growth media (10% FBS), 12 hours) is recorded as 5.9×10^8 RLU/mg protein. In the series with COS 1 cells (COS 1, growth media with serum), the “highest transfection activity, times higher than DOGSHDO” value turned out to be 3 times and the “highest transfection activity, times higher than DOTAP” value came to 2 times. Also, in the series with COS 1 cells (COS 1, lipid/DNA 10/1), the “amount of DNA at saturation of system” value amounted to 2 g and the “transgene expression on increase of DNA from 2 g to 7 g” value is given as “no significant increase of transgene expression (p>0.2319)”. The “transfection activity, times higher than DOGSHDO” value with COS 1 cells (COS 1, serum free, optimal ratio of each liposome) was found to be 11 times. Moreover, the “transfection activity, times higher than DOTAP” value in the series with COS 1 cells (COS 1, serum free, optimal ratio, DOTAP at 1:1) was 6 times. Further, the “amount of DNA at saturation of system” value in the series with COS 1 cells (COS-1 cells, optimal DNA/liposome ratio) worked out at 2e-06 g. In addition, the “expression of luciferase at lipid/DNA ratios 1/1, 2/1, 3/1, 4/1 (w/w)” value with COS 1 cells (growth media with serum) was “not statistically different (p>0.2782)”. The “effect on transfection activity compared to DOGSHDO” value in the series on COS-1 cells is on record as “greater than 50 fold”. Also, the “effect on transfection activity compared to DOGSHDO” value in the series with 293 cells is recorded as “greater than 50 fold”. In series [4], the “effect of further increase of liposome amount above 10/1” value was “caused cytotoxicity and decreased the transfection activity”; the “optimal weight ratio of cationic lipid to DNA in transfection” value is on record as 10/1.
Take `CCCCCCCC/C=C\CCCCCCCC(=O)OCC(COC(=O)CCC(=O)OCCCCCCOC(=O)[C@@H](N)CCCN)OC(=O)CCCCCCC/C=C\CCCCCCCC` (some centres unmarked) [DOGSHDO, 1',2'-dioleyl-sn-glycero-3'-succinyl-1,6-hexanediol ornithine conjugate]: the “transgene expression efficiency” value in the series on CHO cells [1] is on record as 6-7%. Moreover, the “aggregation of transfection complexes” value in series [2] (setting [5]) was “did not aggregate during transfection”. The “gene expression with increasing amount of DNA/liposome” value in the series with CHO cells [3] (CHO) is recorded as “gene expression kept increasing”. In the series with CHO cells [3] (setting [6]), the “transfection time of highest transfection activity” value was 12 h. The luciferase gene expression in the series with CHO cells [3] (CHO, 7 μg of DNA) amounted to 6.5E+07. For the same compound, in the series on COS 1 cells (7 μg of DNA, COS-1 cells), the saturation of system result is on record as “did not reach the saturation”. The compound further gave a luciferase gene expression in the series with COS 1 cells (COS 1, 7 g of pDNA) of 3.84E+08. In addition, the “transgene expression with increasing complexes” value in the series on COS 1 cells (COS 1, lipid/DNA 10/1) was “increased with the increase of DNA/DOGSHDO complexes (p<0.0071) for the system did not reach saturation”. Moreover, in the series on COS 1 cells (COS-1 cells), the “luciferase expression, 7 μg of DNA, vs 2 μg of DNA by DOGSDSO” value is “only one third of that of 2 μg of DNA transferred by DOGSDSO liposome”. In series [4], the “effect of further increase of liposome amount above 10/1” value is “caused cytotoxicity and decreased the transfection activity”; the “optimal weight ratio of cationic lipid to DNA in transfection” value is 10/1.
As for `CCCCCCCC/C=C\CCCCCCCC(=O)OCC(C[N+](C)(C)C)OC(=O)CCCCCCC/C=C\CCCCCCCC` (centres unmarked) [DOTAP, 1,2-dioleoyl-3-trimethylammonium-propane, reference compound], in the series with CHO cells [1], the “transgene expression efficiency” value was 5-6%. Besides, the “aggregation of transfection complexes” value in [2] (weight ratios of DOTAP to DNA bigger than 2:1) was “form large aggregates”. Moreover, in the series with CHO cells [3] (setting [6]), the “transfection activity from 2 hours to 48 hours transfection time” value is “not statistically different from 2 hours to 48 hours transfection time (p>0.1220)”.
